This note sets out measurements from patent US9688681B2, “Heterocyclic compounds as pest control agents” (BAYER CROPSCIENCE AKTIENGESELLSCHAFT, priority 2013, dated 2017).

SMILES strings stand for the structures. Read-outs that look alike come from different tables or passages of the source.

Series [1] relates to green peach aphid (Myzus persicae). Put plainly: Myzus persicae spray test on Chinese cabbage leaf discs. It counts as in vivo. Particulars: application rate 500 g/ha, after 6 days. From the text:
Discs of Chinese cabbage leaves (Brassica pekinensis) infested by all stages of the green peach aphid (Myzus persicae) are sprayed with an active ingredient formulation of the desired concentration.

The test system of series [2] is southern root-knot nematode (Meloidogyne incognita). To be noted: application rate 20 ppm, after 14 days, lettuce in sand. The method, then: Meloidogvne incognita Test (MELGIN)
Solvent: 125.0 parts by weight of acetone
To produce an appropriate active ingredient formulation, 1 part by weight of active ingredient is mixed with the specified amounts of solvent and the concentrate is diluted to the desired concentration with water.
Vessels are filled with sand, active ingredient solution, an egg/larvae suspension of the southern root-knot nematode (Meloidogyne incognita) and lettuce seeds. The lettuce seeds germinate and the plants develop.
After 14 days, the nematicidal efficacy in % is determined by the formation of galls.

Series [3] in a line: log P by HPLC on reversed-phase C18 columns (OECD Guideline 117). To be noted: for chromatographic logP: reversed-phase C18 HPLC column. The class given is physicochemical.
The subject of series [4] is green peach aphid (Myzus persicae). To be noted: application rate 20 ppm, after 6 days, bell pepper plants sprayed to runoff. The method, then: Myzus persicae—Spray Test
Solvent: 7 parts by weight of dimethylformamide
Emulsifier: alkylaryl polyglycol ether
To produce an appropriate active ingredient formulation, 1 part by weight of active ingredient is dissolved using the specified parts by weight of solvent and made up with water containing an emulsifier concentration of 1000 ppm until the desired concentration is attained. To produce further test concentrations, the preparation is diluted with emulsifier-containing water. If the addition of ammonium salts or/and penetrants is required, these are each added in a concentration of 1000 ppm to the formulation solution.
After 6 days, the kill in % is determined. 100% means that all the aphids have been killed; 0% means that no aphids have been killed.

[5] abbreviates: HPLC RP C18, acidic range pH 2.7, 0.1% aqueous formic acid/acetonitrile.
Where [6] appears, read: HPLC RP C18, neutral range pH 7.8, 0.001 molar aqueous ammonium hydrogencarbonate/acetonitrile.
Where [7] appears, read: pH 2.7, HPLC RP C18, acidic range pH 2.7, 0.1% aqueous formic acid/acetonitrile, read-out: logP[a].
Setting [8] is: pH 7.8, HPLC RP C18, neutral range pH 7.8, 0.001 molar aqueous ammonium hydrogencarbonate/acetonitrile, read-out: logP[b].

In the case of `O=c1c2cn(-c3cccnc3)nc2ncn1-c1ccc(Cl)cc1` [compound 14], the “efficacy (aphids killed)” value in series [1] came out at 90%. For the same compound, the “nematicidal efficacy (formation of galls)” value in series [2] is reported as 100%. In addition, the “logP[a]” value in series [3] (setting [5]) is reported as 1.74.
Regarding `O=c1c2cn(-c3cccnc3)nc2ncn1C1CC1` [compound 23], in series [1], the “efficacy (aphids killed)” value was found to be 100%. For the same compound, the “logP[a]” value in series [3] (setting [5]) was determined as 0.79. Also, the “logP[b]” value in series [3] (setting [6]) came to 0.83.
The like results for `CC(F)(F)Cn1cnc2nn(-c3cccnc3)cc2c1=O` [compound 24] were, in that order, 100%, 1.19 and 1.21.
The like results for `O=c1c2cn(-c3cccnc3)nc2ncn1CC(F)F` [compound 25] were, in that order, 100%, 0.91 and 0.96.
Regarding `CSCCn1cnc2nn(-c3cccnc3)cc2c1=O` [compound 27], in series [4], the “efficacy (kill)” value worked out at 90%. Besides, the “logP[a]” value in series [3] (setting [5]) was 1.13. Moreover, the “logP[b]” value in series [3] (setting [6]) is given as 1.19.
Consider `Cc1nc2nn(-c3cccnc3)cc2c(=O)n1C(C)C` [compound 28], for which, in series [1], the “efficacy (aphids killed)” value is recorded as 90%. Besides, the “logP[a]” value in series [3] (setting [5]) is 1.28. Besides, in series [3] (setting [6]), the “logP[b]” value worked out at 1.35.
Regarding `CCn1c(C)nc2nn(-c3cccnc3)cc2c1=O` [compound 29, 5-Ethyl-6-methyl-2-(pyridin-3-yl)-2,5-dihydro-4H-pyrazolo[3,4-d]pyrimidin-4-one], the “efficacy (aphids killed)” value in series [1] came out at 90%. Moreover, the figures for the chromatographic logP in series [3] (setting [7]) and in series [3] (setting [8]) were 0.93 and 1.03, respectively.
Turning to `N#CC1(n2cnc3nn(-c4cccnc4)cc3c2=O)CC1` [compound 30], the “efficacy (aphids killed)” value in series [1] is given as 100%. In addition, the “logP[a]” value in series [3] (setting [5]) was determined as 0.82. Further, the “logP[b]” value in series [3] (setting [6]) is listed as 0.85.
On to `CSCC(C)n1cnc2nn(-c3cccnc3)cc2c1=O` (stereo not drawn) [compound 31], for which the “efficacy (kill)” value in series [4] came to 95%. In addition, the “logP[a]” value in series [3] (setting [5]) came to 1.36. Besides, in series [3] (setting [6]), the “logP[b]” value is 1.40.
Regarding `O=c1c2cn(-c3cccnc3)nc2ncn1CC1CC1` [compound 33], in series [1], the “efficacy (aphids killed)” value came out at 100%. Further, the “logP[a]” value in series [3] (setting [5]) came to 1.23. Besides, in series [3] (setting [6]), the “logP[b]” value turned out to be 1.27.
Taken in the same sequence, the figures for `CC(C)(C)Cn1cnc2nn(-c3cccnc3)cc2c1=O` [compound 34] were 100%, 1.70 and 1.71.
As for `CC(C)n1nnc2nn(-c3cccnc3)cc2c1=O` [compound 36, 3-Isopropyl-6-(3-pyridyl)pyrazolo[3,4-d]triazin-4-one], the “efficacy (aphids killed)” value in series [1] is given as 90%. The chromatographic logP in series [3] (setting [7]) was 1.72; in series [3] (setting [8]) it was 1.7.
As to `CC(C)n1cnc2nn(-c3cncnc3)cc2c1=O` [compound 37], the “efficacy (aphids killed)” value in series [1] is given as 100%. For the same compound, the “logP[a]” value in series [3] (pH 2.7) came out at 0.93. The “logP[b]” value in series [3] (pH 7.8) amounted to 0.92.
In the case of `CC(C)n1cnc2nn(-c3ccnnc3)cc2c1=O` [compound 38, 5-Isopropyl-2-pyridazin-4-yl-pyrazolo[3,4-d]pyrimidin-4-one], the “efficacy (aphids killed)” value in series [1] turned out to be 90%. For the same compound, the chromatographic logP in series [3] (setting [7]) and in series [3] (setting [8]) was 0.85 each time.
On to `Cc1ccc(-n2cnc3nn(-c4cccnc4)cc3c2=O)cc1` [compound 39], for which the “efficacy (aphids killed)” value in series [1] was 100%. Besides, the “logP[a]” value in series [3] (setting [5]) turned out to be 1.73. Moreover, the “logP[b]” value in series [3] (setting [6]) is 1.73.
